Data reported in patent US20250025445A1, “METHOD OF CARDIOPROTECTION” (Race Oncology LTD., priority 2021, published 2025).
Read-outs that look alike come from different tables or passages of the source.

What was measured:
[1] = tested on: tumor cells from 684 patients; details: breast, small cell lung, large cell lung, squamous cell lung, ovarian, pancreatic, renal, adrenal, head and neck, sarcoma, gastric, lymphoma and melanoma tumor cells; cited from earlier work
[2] = tested on: Primary Human Cardiac Myocytes (HCMs); experiment: Primary human cardiomyocyte cell viability (CellTiter-Glo); format: cell-based
Method: Primary Human Cardiac Myocytes (HCMs) were purchased from PromoCell® (Heidelberg, Germany) and cultured according to manufacturer's recommendations using PromoCell® Myocyte growth media (5% [v/v] foetal calf serum, 0.5 ng/ml recombinant human epidermal growth factor, 2 ng/ml recombinant human basic fibroblast growth factor, 5 μg/ml recombinant human insulin) supplemented with 1% [v/v] Penicillin-Streptomycin [Sigma-Aldrich]). Briefly, 1×10^6 HCMs were seeded and grown in Corning® T75 flasks (Sigma-Aldrich, New South Wales, Australia) in an incubator at 37° C. under 5% CO2 conditions. At 80-90% confluency, HCMs were gently detached using the DetachKit (PromoCell®), collected into Corning® 50 mL centrifuge tubes (Sigma-Aldrich), and centrifuged at 300×g for 10 mins at room temperature. The resulting supernatant were discarded and HCM pellet was resuspended with 5-10 mL of pre-warmed Myocyte Growth Medium. Total viable cells were enumerated with Invitrogen™ Countess Cell Counter (Thermo Fisher Scientific, New South Wales, Australia) and 1×10^5 live HCMs were seeded in triplicate into Corning® 96-well white polystyrene microplate (Sigma).
(§1) Dox, Dauno and Epi, were dissolved in sterile water to make a stock concentration of 20 mM, respectively, while Tz was dissolved in sterile PBS to a stock concentration of 100 μM. […] The concentrations were as follows 0 nM, 15.62 nM, 62.5 nM, 250 nM, 500 nM, 1 μM, 5 μM, and 10 μM. […] Vehicle controls were incubated with media supplemented with either sterile water or DMSO. […] This was repeated at 48 hours and 72 hours. […] Both FB23/2 and brequinar (MedChemExpress) were dissolved in dimethyl sulfoxide (DMSO; Sigma-Aldrich) to make a stock concentration of 40 mM and 20 mM respectively.

MCF7 breast cancer cells = experiment: MCF7 breast cancer cell viability (CellTiter-Glo); format: cell-based, human; details: 72 hours
Method: Human breast adenocarcinoma (MCF7) cells were purchased from In Vitro Technologies (Victoria, Australia) and cultured according to manufacturer's recommendations using MCF7 growth media, Low glucose Dulbecco's Modified Eagle's medium (DMEM; Sigma-Aldrich, Australia) supplemented with 10% (v/v) foetal calf serum (Sigma-Aldrich) and 1% (v/v) Penicillin-Streptomycin (Sigma-Aldrich). Briefly, 1×10^6 MCF7 were seeded and grown in Corning® T75 flasks (Sigma-Aldrich) in an incubator at 37° C. under 5% CO2 conditions. At 80-90% confluency, MCF7 were washed with Dulbecco's Phosphate Buffered Saline (Sigma-Aldrich) for 30s at room temperature and followed by incubation with Trypsin-EDTA (Sigma-Aldrich) for 5 mins at 37° C. under 5% CO2 conditions. Trypsin solution was then neutralised with 1:1 volume of MCF7 growth media. The cell suspensions were then collected into Corning® 50 mL centrifuge tubes (Sigma-Aldrich) and centrifuged at 300×g for 10 mins at room temperature. The resulting supernatants were discarded and MCF7 pellets were resuspended with 5-10 mL of pre-warmed MCF7 growth media. Total viable cells were enumerated with Invitrogen™ Countess Cell Counter (Thermo Fisher Scientific, New South Wales, Australia) and 9×10^4 live MCF7 were seeded in triplicate into Corning® 96-well white polystyrene microplate (Sigma).
as §1

[3] = tested on: MDA-MB-231 breast cancer cells; experiment: MDA-MB-231 breast cancer cell viability with Webb synergy analysis; format: cell-based, human
Method: Human breast cancer cell line NDA-MB-231 was cultured in a humidified chamber at 37° C. with 5% CO2 in DMEM supplemented with 10% foetal bovine serum (FBS), 2 mM L-glutamine and 2% HEPES. Cells were maintained adherent.

[4] = Doxorubicin cardiotoxicity in mice: histologic cardiac fibrosis; format: in vivo; details: bisantrene co-administered with doxorubicin at 1:1 molar ratio; Day 21; relative to matched doses of doxorubicin
Text: (§2) In particular, well established cardiotoxicity markers, including left ventricular fractional shortening, heart E/A ratio, left ventricular diastolic function, left ventricular dilatation, cardiac output, plasma triglyceride levels, plasma creatine kinase-MB (CK-MB), plasma LDH (lactate dehydrogenase) and plasma brain natriuretic peptide (BNP) were monitored over a period of up to 42 days following the start of treatments delivered weekly, four times (and therefore final treatment on day 21).
(§3) Treatments were delivered to mice intravenously on days 0, 7, 14 and 21. Mice underwent echocardiography measurements at days 0, 21 and 42 to determine LVEF, FS, EDV, ESV, CO, E wave, A wave, E′, E/A, and E/E′, and blood samples were taken at days 0, 21 and 42 to assay for cardiac troponin I levels, BNP levels, CK, LDH levels and triglycerides.

[5] = tested on: colon 26, Lewis lung, Ridgway osteosarcoma, B16, Lieberman plasma cell, P388 or L1210 cancer cells; details: cited from earlier work
[6] = Doxorubicin cardiotoxicity in mice: blood tests
Text: as §2, §3

[7] = bisantrene 3.67 mg/kg + doxorubicin 5 mg/kg (Dox+Bis 1:1)
[8] = bisantrene 5.65 mg/kg + doxorubicin 4 mg/kg (Dox+Bis 80% of 1:2)

C(=NNC1=NCCN1)c1c2ccccc2c(C=NNC2=NCCN2)c2ccccc12 [bisantrene, 9,10-anthracenedicarboxaldehyde bis [(4,5-dihydro-1H-imidazol-2-yl)hydrazone]]
activity in clonogenic assays [1]: Activity in clonogenic assays from 684 patients was seen | protection of cardiomyocytes against toxicity of CFZ ([2]; 0-5 μM bisantrene with 1 μM carfilzomib, 24, 48, 72 hrs, FIG. 1): concentration-dependent protection | protection of cardiomyocytes against toxicity of Dox ([2]; 0-5 μM bisantrene with 1 μM doxorubicin, 24, 48, 72 hrs, FIG. 1): concentration-dependent protection | rescue of bortezomib cardiomyocyte toxicity ([2]; 1 μM bisantrene coadministered with bortezomib, 72 hours, FIG. 7): significant rescue of cardiomyocyte toxicity | rescue of carfilzomib cardiomyocyte toxicity ([2]; 1 μM bisantrene coadministered with carfilzomib, 72 hours, FIG. 7): significant rescue of cardiomyocyte toxicity | rescue of daunorubicin cardiotoxicity on cardiomyocytes ([2]; 1 μM bisantrene with 1 μM daunorubicin, 72 hours, FIG. 5): cardiotoxicity rescue effects | rescue of epirubicin cardiotoxicity on cardiomyocytes ([2]; 1 μM bisantrene with 1 μM epirubicin, 72 hours, FIG. 6): a trend toward statistical significance | effect on combined toxicity of doxorubicin and trastuzumab to cardiomyocytes ([2]; 1 or 5 μM bisantrene with 1 μM doxorubicin and 500 nM trastuzumab, FIG. 2): reduced the combined toxicity | effect of increasing bisantrene on loss of cardiomyocyte viability with doxorubicin alone ([2]; 1 or 5 μM bisantrene with 1 μM doxorubicin, FIG. 2): reduced loss of viability | toxicity (loss in cell viability) to cardiomyocytes ([2]; agent alone (1 μM doxorubicin, 1 μM carfilzomib, 0-5 μM bisantrene), 24 hrs, 48 hrs and 72 hrs, FIG. 1): mild progressive toxicity | toxicity to MCF7 breast cancer cells (MCF7 breast cancer cells; 0-10 μM bisantrene alone, FIG. 3): concentration-dependent toxicity | interference with toxicity of carfilzomib to MCF7 cells (MCF7 breast cancer cells; 0-10 μM bisantrene with 1 μM carfilzomib, FIG. 3): did not interfere with the toxicity | combined toxicity of bisantrene with doxorubicin or carfilzomib to MCF7 cells (MCF7 breast cancer cells; 0-10 μM bisantrene with 1 μM doxorubicin or 1 μM carfilzomib): additive toxicity | interference with toxicity of doxorubicin to MCF7 cells (MCF7 breast cancer cells; 0-10 μM bisantrene with 1 μM doxorubicin, FIG. 3): did not interfere with the toxicity | mitigation of doxorubicin cardiotoxicity: cardiac output [7]: mitigation of doxorubicin cardiotoxicity | mitigation of doxorubicin cardiotoxicity: left ventricular diastolic function [7]: appeared to mitigate the cardiotoxic effects | mitigation of doxorubicin cardiotoxicity: left ventricular dilatation [7]: appeared to mitigate the cardiotoxic effects | mitigation of doxorubicin cardiotoxicity: left ventricular fractional shortening [7]: significantly mitigated | mitigation of doxorubicin cardiotoxicity: cardiac output [8]: even less effect | mitigation of doxorubicin cardiotoxicity: left ventricular fractional shortening [8]: less effect | mitigation of doxorubicin cardiotoxicity: left ventricular fractional shortening (bisantrene 7.33 mg/kg + doxorubicin 5 mg/kg (Dox+Bis 1:2)): significantly mitigated | mitigation of doxorubicin cardiotoxicity: cardiac output (bisantrene 7.33 mg/kg + doxorubicin 5 mg/kg (Dox+Bis 1:2), compared to Dox+Bis 1:1): mitigation of doxorubicin cardiotoxicity was slightly greater | cardiac output (bisantrene 7.33 mg/kg alone): suggestion (but not significant) of mild deleterious effects | left ventricular diastolic function (bisantrene 7.33 mg/kg alone): suggestion (but not significant) of mild deleterious effects | left ventricular dilatation (bisantrene 7.33 mg/kg alone): suggestion (but not significant) of mild deleterious effects | left ventricular fractional shortening (bisantrene 7.33 mg/kg alone, i.v. days 0, 7, 14, 21): suggestion (but not significant) of mild deleterious effects | toxic effects against MDA-MB-231 breast cancer cells ([3]; bisantrene alone, FIGS. 8 to 10): concentration-dependent toxic effects | combined effect with carfilzomib on MDA-MB-231 cells ([3]; bisantrene with carfilzomib, Webb synergy analysis, FIG. 10C): at least additive to, if not synergistic with | combined effect with doxorubicin on MDA-MB-231 cells ([3]; bisantrene with doxorubicin, Webb synergy analysis, FIGS. 8, 10A): at least additive to, if not synergistic with | combined effect with epirubicin on MDA-MB-231 cells ([3]; bisantrene with epirubicin, Webb synergy analysis, FIGS. 9, 10B): at least additive to, if not synergistic with | histologic cardiac fibrosis [4]: significantly decreased | effectiveness in cancer models [5]: effective | plasma CK-MB levels ([6]; bisantrene 3.67 mg/kg + doxorubicin 5 mg/kg (Dox+Bis 1:1), day 21): kept CK-MB levels down at or near the vehicle-only control levels | mitigation of doxorubicin-induced plasma triglyceride increases ([6]; bisantrene 3.67 mg/kg + doxorubicin 5 mg/kg (Dox+Bis 1:1), day 21 and day 42): significant mitigation | mitigation of doxorubicin-induced plasma triglyceride increases [6, 8]: less effect | plasma CK-MB levels ([6]; bisantrene 7.33 mg/kg + doxorubicin 5 mg/kg (Dox+Bis 1:2), day 21): kept CK-MB levels down at or near the vehicle-only control levels | mitigation of doxorubicin-induced plasma triglyceride increases ([6]; bisantrene 7.33 mg/kg + doxorubicin 5 mg/kg (Dox+Bis 1:2), day 42): significant mitigation | brain natriuretic peptide levels (mitigation of doxorubicin effects) ([6]; bisantrene 7.33 mg/kg + doxorubicin 5 mg/kg (Dox: Bis 1:2), day 42 or day 21): not significant | plasma triglycerides ([6]; bisantrene 7.33 mg/kg alone, day 21, vs vehicle-only control): slight (but insignificant) increase | plasma triglycerides (increase) ([6]; bisantrene 7.33 mg/kg alone, day 42, vs vehicle-only control): not at day 42
